Data set [1] can be described thus: Test for concentration in blood (plasma of mouse, bioassay). Type of data set: in vivo. The note with it: sc, subcutaneous, 2 mg/mouse, average on five mice; for Cmax: bioassay with Comamonas terrigena B-996, read-out: Maximum concentration; for half-life: read-out: Half period (period that elapsed until the concentration was reduced to half). How it is done:
Typical species of the compounds of formula (VI-b) were each administered subcutaneously to five mice in a dose of 2 mg. After 5 minutes from the administration, a small amount of blood was periodically drawn from the eyes of the mice into a heparinized capillary tube, and centrifuged. The concentration of the compound in the supernatant liquid (plasma) was determined by a bioassay method using Comamonas terri^gena B-996.

Data set [2] concerns Staphylococcus aureus Smith strain. Briefly: Infection treating test (CD50). The class given is in vivo. To be noted: in Mus musculus, sc, 2 h, mice infected intraperitoneally with 5 x 10^5 cells per mouse, subcutaneous injection two hours after the infection. How it is done: The in vivo activities of the compounds of formula (VI-b) were determined by using mice (five per group, male DDY mice, Shizuoka) which had been intraperitoneally infected with Staphylococcus aureus Smith strain in an amount of 5 x 10^5 cells per mouse. Two hours after the infection, an injection containing a sodium salt of each of the compounds of formula (VI-b) was subcutaneously administered to the mice.

For another data set, the system named is S. aureus. In words: Disc diffusion assay in nutrient broth containing 10% horse serum. Type of data set: cell-based. An excerpt:
The compounds of formula (I) provided by this invention show excellent antimicrobial activities in in vitro tests in horse serum as shown in Table IV below.

Molecules are shown by their SMILES.

`CC(C)C1C(=O)N2C(C(=O)O)=C(Sc3ccncc3)CC12` (centres unmarked) [Table II r6 R1=-CH3 R2=[drawing] M=H]: in data set [1], the Cmax was determined as 30700 ng/mL and the half-life was 15.2 min. Also, in data set [2], the ED50 was found to be 0.5 mg/kg.

Consider `CCC1C(=O)N2C(C(=O)O)=C(Sc3ccccn3)CC12` (centres unmarked) [Table II r9 R1=H R2=[drawing] M=H], for which, in data set [1], the Cmax amounted to 48400 ng/mL and the half-life was 29 min. In data set [2], it took a dose of 0.125 mg/kg to reach the 50% effect level (ED50).

Turning to `CCC1C(=O)N2C(C(=O)O)=C(Sc3ncccn3)CC12` (centres unmarked) [Table II r10 R1=H R2=[drawing] M=H], in data set [1], the Cmax came out at 23600 ng/mL and the half-life was 22 min. This compound also yielded an ED50 in data set [2] of 0.25 mg/kg.

Regarding `CC(C)C1C(=O)N2C(C(=O)O)=C(Sc3ncccn3)CC12` (centres unmarked) [Table II r11 R1=-CH3 R2=[drawing] M=H], in data set [1], the Cmax is 21200 ng/mL and the half-life amounted to 18.2 min. Further, the 50% effect level in data set [2] (ED50) was put at a dose of 1 mg/kg.

As to `CCC1C(=O)N2C(C(=O)OC)=C(Br)CC12` (stereo not drawn) [Table IV r4 R=H X=Br M=CH3, methyl 3-bromo-6-ethyl-7-oxo-l-azabicyclo[3.2.0]hept-2-ene-2-carboxylate], the Inhibitory zone diameter with S. aureus was 29.7 mm.

In the data set with S. aureus, `CCC1C(=O)N2C(C(=O)OCc3ccccc3)=C(Br)CC12` (centres unmarked) [Table IV r5 R=H X=Br M=[drawing]] returned an Inhibitory zone diameter of 30.2 mm.

In turn, `CCC1C(=O)N2C(C(=O)OCc3ccc([N+](=O)[O-])cc3)=C(Br)CC12` (centres unmarked) [Table IV r6 R=H X=Br M=[drawing]] yielded an Inhibitory zone diameter in the data set with S. aureus of 28.6 mm.

For `CC(C)C1C(=O)N2C(C(=O)OCc3ccc([N+](=O)[O-])cc3)=C(Br)CC12` (centres unmarked) [Table IV r7 R=CH3 X=Br M=[drawing]], the Inhibitory zone diameter in the data set with S. aureus is 26.8 mm.

As for `CC(O)C1C(=O)N2C(C(=O)OCc3ccc([N+](=O)[O-])cc3)=C(Br)CC12` (centres unmarked) [Table IV r8 R=OH X=Br M=[drawing]], the Inhibitory zone diameter in the data set with S. aureus is 31.2 mm.

`CCC1C(=O)N2C(C(=O)OC)=C(I)CC12` (stereo not drawn) [Table IV r9 R=H X=I M=CH3, methyl 3-iodo-6-ethyl-7-oxo-l-azabicyclo[3.2.0]hept-2-ene-2-carboxylate]: in the data set with S. aureus, the Inhibitory zone diameter was 29.6 mm.

`CCC1C(=O)N2C(C(=O)OCc3ccccc3)=C(I)CC12` (centres unmarked) [Table IV r10 R=H X=I M=[drawing]] showed an Inhibitory zone diameter in the data set with S. aureus of 30.0 mm.

`COC(=O)C1=C(I)CC2C(C(C)O)C(=O)N12` (centres unmarked) [Table IV r11 R=OH X=I M=CH3] returned an Inhibitory zone diameter in the data set with S. aureus of 31.0 mm.
